Source: patent US11814367B2, “Inhibitors of glycogen synthase 1 (GYS1) and methods of use thereof” (Maze Therapeutics, Inc., priority 2021, dated 2023)

Legend:
[1] = target: hGYS1 enzyme (recombinant hGYS1/GN1 protein) (Homo sapiens (Human), UniProt P13807); assay: GYS1 coupled enzyme assay (PK/LDH); assay type: biochemical; conditions: hGYS1/GN1 50 nM, UDP-Glucose 0.8 mM, G6P 1 mM; geometric mean of at least 2 runs
[2] = target: hGYS2 enzyme (recombinant hGYS2/GN1 protein) (Homo sapiens (Human), UniProt P54840); assay: GYS2 coupled enzyme assay (PK/LDH); assay type: biochemical; conditions: geometric mean of at least 2 assay runs on separate days, read-out: Avg_IC50
Chain of hGYS2 enzyme (recombinant hGYS2/GN1 protein) (P54840 whole entry): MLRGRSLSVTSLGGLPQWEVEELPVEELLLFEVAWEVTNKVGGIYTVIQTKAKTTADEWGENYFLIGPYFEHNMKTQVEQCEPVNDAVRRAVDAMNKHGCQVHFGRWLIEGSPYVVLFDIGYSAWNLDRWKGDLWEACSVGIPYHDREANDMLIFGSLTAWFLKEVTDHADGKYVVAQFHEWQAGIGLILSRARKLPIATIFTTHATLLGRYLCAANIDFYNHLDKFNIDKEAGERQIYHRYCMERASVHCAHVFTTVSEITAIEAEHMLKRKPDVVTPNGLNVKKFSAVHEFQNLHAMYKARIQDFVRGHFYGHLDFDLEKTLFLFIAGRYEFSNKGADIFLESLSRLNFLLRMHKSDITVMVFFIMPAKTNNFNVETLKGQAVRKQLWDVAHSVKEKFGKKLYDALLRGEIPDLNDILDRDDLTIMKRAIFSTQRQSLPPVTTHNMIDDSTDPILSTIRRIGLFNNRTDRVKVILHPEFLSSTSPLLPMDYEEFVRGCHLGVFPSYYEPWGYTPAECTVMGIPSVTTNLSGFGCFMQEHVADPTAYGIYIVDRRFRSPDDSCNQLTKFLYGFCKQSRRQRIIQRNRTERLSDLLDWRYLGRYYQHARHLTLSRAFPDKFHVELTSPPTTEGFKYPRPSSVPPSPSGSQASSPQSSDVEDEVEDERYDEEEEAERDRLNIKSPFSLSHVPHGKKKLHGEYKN
Chain of hGYS2 enzyme (recombinant hGYS2/GN1 protein) (P46976 whole entry partner): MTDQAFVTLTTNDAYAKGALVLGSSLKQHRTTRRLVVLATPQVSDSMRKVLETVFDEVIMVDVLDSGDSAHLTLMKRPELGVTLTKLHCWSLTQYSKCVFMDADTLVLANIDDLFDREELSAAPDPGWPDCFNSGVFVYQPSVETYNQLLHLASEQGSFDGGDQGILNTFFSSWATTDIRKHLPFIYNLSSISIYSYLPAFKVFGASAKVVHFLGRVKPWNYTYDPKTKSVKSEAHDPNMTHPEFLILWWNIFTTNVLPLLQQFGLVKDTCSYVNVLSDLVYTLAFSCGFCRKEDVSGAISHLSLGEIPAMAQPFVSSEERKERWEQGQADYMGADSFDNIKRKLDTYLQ
Procedure, shortened: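 IC50 came from Hill fits of duplicate percent inhibition, based on control-normalized slopes of 340 nm NADH decline read each minute for 10 min. The reaction held recombinant hGYS2/GN1 (200 nM) with glycogen, UDP-glucose, G6P and PEP, plus PK/LDH coupling at pH 7.5 and 2.5% DMSO.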

[3] = test system: hGYS1 enzyme / glycogen synthesis in HeLa cells; assay: GYS1 cell based assay (glycogen synthesis, Glucose-glo); design: species or system human; conditions: Homo sapiens, HeLa, 24 h, 24 h incubation, 20 mM glucose, geometric mean of at least 2 runs
Procedure, shortened: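 HeLa cells starved 24 h in medium containing only 1× Glutamax were plated onto compound in medium with 20 mM glucose (1% DMSO final) for 24 h, 37 °C, 5% CO2. Acid lysates were Tris-quenched, glucoamylase-digested (pH 5.3, 1 h, 37 °C) and read by Glucose-glo luminescence. IC50 came from Hill fits, as geometric mean of ≥2 runs.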

Chain of hGYS1 enzyme (recombinant hGYS1/GN1 protein) (P13807 whole entry): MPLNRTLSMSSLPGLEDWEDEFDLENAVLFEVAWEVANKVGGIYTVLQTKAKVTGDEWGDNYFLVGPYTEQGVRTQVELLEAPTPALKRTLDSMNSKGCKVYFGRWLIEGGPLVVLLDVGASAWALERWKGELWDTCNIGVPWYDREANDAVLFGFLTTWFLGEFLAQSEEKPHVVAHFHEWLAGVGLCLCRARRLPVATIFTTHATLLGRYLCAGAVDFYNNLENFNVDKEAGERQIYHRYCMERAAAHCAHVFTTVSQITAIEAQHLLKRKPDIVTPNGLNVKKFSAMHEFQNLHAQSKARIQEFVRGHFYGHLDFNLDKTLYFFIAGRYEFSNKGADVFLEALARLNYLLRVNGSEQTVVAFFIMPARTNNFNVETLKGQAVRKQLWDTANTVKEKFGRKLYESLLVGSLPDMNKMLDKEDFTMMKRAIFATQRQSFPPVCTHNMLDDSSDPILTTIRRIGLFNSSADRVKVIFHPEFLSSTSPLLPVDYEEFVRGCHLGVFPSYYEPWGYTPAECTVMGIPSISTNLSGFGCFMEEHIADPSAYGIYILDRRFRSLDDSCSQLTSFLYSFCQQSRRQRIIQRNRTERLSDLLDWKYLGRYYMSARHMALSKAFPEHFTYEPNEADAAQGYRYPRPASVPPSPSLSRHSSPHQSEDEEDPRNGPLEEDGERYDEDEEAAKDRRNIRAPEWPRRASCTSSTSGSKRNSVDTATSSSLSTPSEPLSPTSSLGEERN
Chain of hGYS1 enzyme (recombinant hGYS1/GN1 protein) (P46976 whole entry partner): as the sequence (P46976 whole entry partner) above

| SMILES | IC50 [1] | IC50 [2] | IC50 [3] |
| --- | --- | --- | --- |
| Cc1cn(CC(=O)N2C[C@H](F)C[C@H]2C(=O)N[C@@H](c2ccccc2)c2ccc(C3(C)CC3)c(F)c2)c(=O)[nH]c1=O [Compound 556, (2S,4R)-4-fluoro-N—((S)-(3-fluoro-4-(1-methylcyclopropyl)phenyl)(phenyl)methyl)-1-(2-(5-methyl-2,4-dioxo-3,4-dihydropyrimidin-1(2H)-yl)acetyl)pyrrolidine-2-carboxamide] | 27 nM | > 100000 nM | 760 nM |
| CNC(=O)NCC(=O)N1C[C@H](F)C[C@H]1C(=O)N[C@@H](c1ccccc1)c1ccc(C2CC2)c(F)n1 [Compound 301, (2S,4R)-N-[(S)-(5-cyclopropyl-6-fluoropyridin-2-yl)(phenyl)methyl]-4-fluoro-1-{2-[(methylcarbamoyl)amino]acetyl}pyrrolidine-2-carboxamide] | 46 nM | > 100000 nM | 900 nM |
| O=C(N[C@@H](c1ccccc1)c1ccc(C2CC2)c(F)n1)[C@@H]1C[C@@H](F)CN1C(=O)Cc1ccc(=O)[nH]c1 [Compound 734, (2S,4R)-N-[(S)-(5-cyclopropyl-6-fluoropyridin-2-yl)(phenyl)methyl]-4-fluoro-1-[2-(6-oxo-1,6-dihydropyridin-3-yl)acetyl]pyrrolidine-2-carboxamide] | 26 nM | > 100000 nM | 1730 nM |
| CC(C)c1ccc([C@@H](NC(=O)[C@@H]2[C@H]3C[C@H]3CN2C(=O)Cc2cnn[nH]2)c2ccccc2)nc1F [Compound 415, (1S,2S,5R)-N-[(S)-[6-fluoro-5-(propan-2-yl)pyridin-2-yl](phenyl)methyl]-3-[2-(1H-1,2,3-triazol-5-yl)acetyl]-3-azabicyclo[3.1.0] hexane-2-carboxamide] | 48 nM | > 100000 nM | 710 nM |
| Cc1cn(CC(=O)N2C[C@H](F)C[C@H]2C(=O)N[C@@H](c2ccccc2)c2ccc(C3CC3)c(F)n2)c(=O)[nH]c1=O [Compound 295, (2S,4R)-N-[(S)-(5-cyclopropyl-6-fluoropyridin-2-yl)(phenyl)methyl]-4-fluoro-1-[2-(5-methyl-2,4-dioxo-1,2,3,4-tetrahydropyrimidin-1-yl)acetyl]pyrrolidine-2-carboxamide] | 13 nM | > 100000 nM | 590 nM |
| CC(C)c1ccc([C@@H](NC(=O)[C@@H]2C[C@@H](F)CN2C(=O)COc2cccnn2)c2ccccc2)cc1 [Compound 21, (2S,4R)-4-fluoro-N-[(S)-phenyl[4-(propan-2-yl)phenyl]methyl]-1-[2-(pyridazin-3-yloxy)acetyl]pyrrolidine-2-carboxamide] | 27 nM | > 100000 nM | 470 nM |
| CC(C)c1ccc([C@@H](NC(=O)[C@@H]2C[C@@H](F)CN2C(=O)Cn2nccn2)c2ccccc2)cc1 [Compound 17, (2S,4R)-4-fluoro-N-[(S)-phenyl[4-(propan-2-yl)phenyl]methyl]-1-[2-(2H-1,2,3-triazol-2-yl)acetyl]pyrrolidine-2-carboxamide] | 34 nM | > 100000 nM | 330 nM |
| O=C(N[C@@H](c1ccccc1)c1ccc(C2CC(F)(F)C2)c(F)c1)[C@@H]1C[C@@H](F)CN1C(=O)Cc1ncco1 [Compound 552, (2S,4R)-N-[(S)-[4-(3,3-difluorocyclobutyl)-3-fluorophenyl](phenyl)methyl]-4-fluoro-1-[2-(1,3-oxazol-2-yl)acetyl]pyrrolidine-2-carboxamide] | 82 nM | > 100000 nM | 1120 nM |
| CC(C)c1ccc([C@@H](NC(=O)[C@@H]2[C@H]3C[C@H]3CN2C(=O)Cc2cnn[nH]2)c2ccccc2)nc1 [Compound 279, (1S,2S,5R)-N-[(S)-phenyl[5-(propan-2-yl)pyridin-2-yl]methyl]-3-[2-(1H-1,2,3-triazol-5-yl)acetyl]-3-azabicyclo[3.1.0]hexane-2-carboxamide] | 234 nM | > 100000 nM | 2310 nM |
| CC(=O)NCc1nnc(CC(=O)N2C[C@H](F)C[C@H]2C(=O)N[C@@H](c2ccccc2)c2ccc(C(C)C)cc2)o1 [Compound 239, (2S,4R)-1-{2-[5-(acetamidomethyl)-1,3,4-oxadiazol-2-yl]acetyl}-4-fluoro-N-[(S)-phenyl[4-(propan-2-yl)phenyl]methyl]pyrrolidine-2-carboxamide] | 67 nM | > 100000 nM | 1560 nM |
| O=C(N[C@@H](c1ccccc1)c1ccc(C2CC2)c(F)c1)[C@@H]1C[C@@H](F)CN1C(=O)Cn1c(=O)[nH]c2ccccc21 [Compound 456, (2S,4R)-N-[(S)-(4-cyclopropyl-3-fluorophenyl)(phenyl)methyl]-4-fluoro-1-[2-(2-oxo-2,3-dihydro-1H-1,3-benzodiazol-1-yl)acetyl]pyrrolidine-2-carboxamide] | 55 nM | > 100000 nM | 1080 nM |
| CC(C)c1ccc([C@@H](NC(=O)[C@@H]2C[C@@H](F)CN2C(=O)Cc2ccncc2)c2ccccc2)cc1F [Compound 347, (2S,4R)-4-fluoro-N-[(S)-[3-fluoro-4-(propan-2-yl)phenyl](phenyl)methyl]-1-[2-(pyridin-4-yl)acetyl]pyrrolidine-2-carboxamide] | 30 nM | > 100000 nM | 400 nM |
| CC(C)c1ccc([C@@H](NC(=O)[C@@H]2C[C@@H](F)CN2C(=O)Cc2nnc(C(F)F)o2)c2ccccc2)cc1F [Compound 383, (2S,4R)-1-{2-[5-(difluoromethyl)-1,3,4-oxadiazol-2-yl]acetyl}-4-fluoro-N-[(S)-[3-fluoro-4-(propan-2-yl)phenyl](phenyl)methyl] pyrrolidine-2-carboxamide] | 27 nM | > 100000 nM | 410 nM |
| CC1(c2ccc([C@@H](NC(=O)[C@@H]3C[C@@H](F)CN3C(=O)Cn3cnc4ccccc43)c3ccccc3)nc2F)CC1 [Compound 595, (2S,4R)-1-[2-(1H-1,3-benzodiazol-1-yl)acetyl]-4-fluoro-N-[(S)-[6-fluoro-5-(1-methylcyclopropyl)pyridin-2-yl](phenyl)methyl] pyrrolidine-2-carboxamide] | 25 nM | > 100000 nM | 460 nM |

Now those with a lower IC50 [1], led by results:

| IC50 [1] | IC50 [2] | IC50 [3] | SMILES |
| --- | --- | --- | --- |
| 11 nM | > 100000 nM | 170 nM | Cc1cn(CC(=O)N2C[C@H](F)C[C@H]2C(=O)N[C@@H](c2ccccc2)c2ccc(C(C)C)cc2)c(=O)[nH]c1=O [Compound 126, (2S,4R)-4-fluoro-1-[2-(5-methyl-2,4-dioxo-1,2,3,4-tetrahydropyrimidin-1-yl)acetyl]-N-[(S)-phenyl[4-(propan-2-yl)phenyl]methyl]pyrrolidine-2-carboxamide] |
| 3 nM | > 100000 nM | 50 nM | CCn1c(=O)c(C)cn(CC(=O)N2C[C@H](F)C[C@H]2C(=O)N[C@@H](c2ccccc2)c2ccc(C3CC(F)(F)C3)c(F)n2)c1=O [Compound 501, (2S,4R)—N—((S)-(5-(3,3-difluorocyclobutyl)-6-fluoropyridin-2-yl)(phenyl)methyl)-1-(2-(3-ethyl-5-methyl-2,4-dioxo-3,4-dihydropyrimidin-1(2H)-yl)acetyl)-4-fluoropyrrolidine-2-carboxamide] |
| 11 nM | > 100000 nM | 160 nM | O=C(N[C@@H](c1ccccc1)c1ccc(C2CC(F)(F)C2)cn1)[C@@H]1C[C@@H](F)CN1C(=O)Cn1cnc2ccccc21 [Compound 537, (2S,4R)-1-[2-(1H-1,3-benzodiazol-1-yl)acetyl]-N-[(S)-[5-(3,3-difluorocyclobutyl)pyridin-2-yl] (phenyl)methyl]-4-fluoropyrrolidine-2-carboxamide] |
| 8 nM | > 100000 nM | 350 nM | Cc1cnc(CC(=O)N2C[C@H](F)C[C@H]2C(=O)N[C@@H](c2ccccc2)c2ccc(C(C)C)c(F)n2)o1 [Compound 408, (2S,4R)-4-fluoro-N-[(S)-[6-fluoro-5-(propan-2-yl)pyridin-2-yl](phenyl)methyl]-1-[2-(5-methyl-1,3-oxazol-2-yl)acetyl] pyrrolidine-2-carboxamide] |
| 8 nM | > 100000 nM | 220 nM | CCn1cc(CC(=O)N2C[C@H](F)C[C@H]2C(=O)N[C@@H](c2ccccc2)c2ccc(C3CC(F)(F)C3)c(F)n2)ccc1=O [Compound 519, (2S,4R)-N-[(S)-[5-(3,3-difluorocyclobutyl)-6-fluoropyridin-2-yl](phenyl)methyl]-1-[2-(1-ethyl-6-oxo-1,6-dihydropyridin-3-yl)acetyl]-4-fluoropyrrolidine-2-carboxamide] |
| 11 nM | > 100000 nM | 220 nM | Cc1ccnn1CC(=O)N1C[C@H](F)C[C@H]1C(=O)N[C@@H](c1ccccc1)c1ccc(C(C)C)c(F)n1 [Compound 782, (2S,4R)-4-fluoro-N-[(S)-[6-fluoro-5-(propan-2-yl)pyridin-2-yl](phenyl)methyl]-1-[2-(5-methyl-1H-pyrazol-1-yl)acetyl] pyrrolidine-2-carboxamide] |
| 5 nM | > 100000 nM | 60 nM | CC(C)c1ccc([C@@H](NC(=O)[C@@H]2C[C@@H](F)CN2C(=O)Cn2cnc3ccccc32)c2ccccc2)cc1F [Compound 354, (2S,4R)-1-[2-(1H-1,3-benzodiazol-1-yl)acetyl]-4-fluoro-N-[(S)-[3-fluoro-4-(propan-2-yl)phenyl](phenyl)methyl] pyrrolidine-2-carboxamide] |
